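Five compound concentrations were applied to cells in 96-well plates for 48 hours; endpoints were derived by simple linear interpolation of the resulting dose-response curve. TGI denotes the concentration required for complete inhibition of growth.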
Columns and labels:
Experiment in all cases: NCI tumour cell line growth inhibition, 48 h
HCT-15 colon = test system: HCT-15 colon
HL-60(TB) leukemia = test system: HL-60(TB) leukemia
SN12C renal = test system: SN12C renal
RXF 393 renal = test system: RXF 393 renal
NCI-H23 lung = test system: NCI-H23 lung
CAKI-1 renal = test system: CAKI-1 renal
NCI-H460 lung = test system: NCI-H460 lung
SF-539 CNS = test system: SF-539 CNS
NCI-H522 lung = test system: NCI-H522 lung
HT29 colon = test system: HT29 colon
XF 498 CNS = test system: XF 498 CNS
P388/ADR leukemia = test system: P388/ADR leukemia
NCI/ADR-RES ovarian = test system: NCI/ADR-RES ovarian
HOP-62 NSCLC = test system: HOP-62 NSCLC
SNB-78 CNS = test system: SNB-78 CNS
OVCAR-5 ovarian = test system: OVCAR-5 ovarian
DMS 273 small cell lung = test system: DMS 273 small cell lung
SF-295 CNS = test system: SF-295 CNS
SK-MEL-28 melanoma = test system: SK-MEL-28 melanoma
UACC-257 melanoma = test system: UACC-257 melanoma
HCT-116 colon = test system: HCT-116 colon
IGROV1 ovarian = test system: IGROV1 ovarian
EKVX NSCLC = test system: EKVX NSCLC
COLO 205 colon = test system: COLO 205 colon
A498 renal = test system: A498 renal
A549 NSCLC = test system: A549 NSCLC
HOP-92 NSCLC = test system: HOP-92 NSCLC
CCRF-CEM leukemia = test system: CCRF-CEM leukemia
SF-268 CNS = test system: SF-268 CNS
NCI-H226 lung = test system: NCI-H226 lung
M19-MEL melanoma = test system: M19-MEL melanoma
KM12 colon = test system: KM12 colon
SNB-75 CNS = test system: SNB-75 CNS
SNB-19 CNS = test system: SNB-19 CNS
SK-OV-3 ovarian = test system: SK-OV-3 ovarian
UACC-62 melanoma = test system: UACC-62 melanoma
U251 CNS = test system: U251 CNS
OVCAR-8 ovarian = test system: OVCAR-8 ovarian
MCF7 breast = test system: MCF7 breast
OVCAR-4 ovarian = test system: OVCAR-4 ovarian
DLD-1 colon = test system: DLD-1 colon
LOX IMVI melanoma = test system: LOX IMVI melanoma
MALME-3M melanoma = test system: MALME-3M melanoma
OVCAR-3 ovarian = test system: OVCAR-3 ovarian
MOLT-4 leukemia = test system: MOLT-4 leukemia
HCC-2998 colon = test system: HCC-2998 colon
RPMI-8226 leukemia = test system: RPMI-8226 leukemia
KM20L2 colon = test system: KM20L2 colon
DMS 114 small cell lung = test system: DMS 114 small cell lung
P388 leukemia = test system: P388 leukemia
SN12K1 renal = test system: SN12K1 renal
K-562 leukemia = test system: K-562 leukemia
SK-MEL-5 melanoma = test system: SK-MEL-5 melanoma
SK-MEL-2 melanoma = test system: SK-MEL-2 melanoma
UO-31 renal = test system: UO-31 renal
HOP-18 NSCLC = test system: HOP-18 NSCLC
SW-620 colon = test system: SW-620 colon
786-0 renal = test system: 786-0 renal
ACHN renal = test system: ACHN renal
M14 melanoma = test system: M14 melanoma
LXFL 529 NSCLC = test system: LXFL 529 NSCLC
SR leukemia = test system: SR leukemia
TK-10 renal = test system: TK-10 renal
RXF-631 renal = test system: RXF-631 renal

CCN1CC2(CO)CCC(OC)C34C5CC6C(OC)CC(O)(C5C6OC)C(O)(C(OC)C23)C14 (configuration not stated)
TGI (HCT-15 colon): > 375 µM
TGI (HL-60(TB) leukemia): > 375 µM
TGI (SN12C renal): > 375 µM
TGI (RXF 393 renal): > 375 µM
TGI (NCI-H23 lung): > 375 µM
TGI (CAKI-1 renal): > 375 µM
TGI (NCI-H460 lung): > 375 µM
TGI (SF-539 CNS): > 375 µM
TGI (NCI-H522 lung): > 375 µM
TGI (HT29 colon): > 375 µM
TGI (XF 498 CNS): > 375 µM
TGI (P388/ADR leukemia): > 80.8 µM
TGI (NCI/ADR-RES ovarian): > 375 µM
TGI (HOP-62 NSCLC): > 375 µM
TGI (SNB-78 CNS): > 375 µM
TGI (OVCAR-5 ovarian): > 209 µM
TGI (DMS 273 small cell lung): > 375 µM
TGI (SF-295 CNS): > 375 µM
TGI (SK-MEL-28 melanoma): > 375 µM
TGI (UACC-257 melanoma): > 375 µM
TGI (HCT-116 colon): > 375 µM
TGI (IGROV1 ovarian): > 375 µM
TGI (EKVX NSCLC): > 65 µM
TGI (COLO 205 colon): > 375 µM
TGI (A498 renal): > 375 µM
TGI (A549 NSCLC): > 375 µM
TGI (HOP-92 NSCLC): > 375 µM
TGI (CCRF-CEM leukemia): > 375 µM
TGI (SF-268 CNS): > 375 µM
TGI (NCI-H226 lung): > 375 µM
TGI (M19-MEL melanoma): > 375 µM
TGI (KM12 colon): > 375 µM
TGI (SNB-75 CNS): > 375 µM
TGI (SNB-19 CNS): > 375 µM
TGI (SK-OV-3 ovarian): > 375 µM
TGI (UACC-62 melanoma): > 375 µM
TGI (U251 CNS): > 375 µM
TGI (OVCAR-8 ovarian): > 375 µM
TGI (MCF7 breast): > 375 µM
TGI (OVCAR-4 ovarian): > 375 µM
TGI (DLD-1 colon): > 59.4 µM
TGI (LOX IMVI melanoma): > 375 µM
TGI (MALME-3M melanoma): > 375 µM
TGI (OVCAR-3 ovarian): > 174 µM
TGI (MOLT-4 leukemia): > 375 µM
TGI (HCC-2998 colon): > 375 µM
TGI (RPMI-8226 leukemia): > 375 µM
TGI (KM20L2 colon): > 375 µM
TGI (DMS 114 small cell lung): > 375 µM
TGI (P388 leukemia): > 174 µM
TGI (SN12K1 renal): > 375 µM
TGI (K-562 leukemia): > 375 µM
TGI (SK-MEL-5 melanoma): > 211 µM
TGI (SK-MEL-2 melanoma): > 63.9 µM
TGI (UO-31 renal): > 375 µM
TGI (HOP-18 NSCLC): > 375 µM
TGI (SW-620 colon): > 375 µM

CCn1c(C)nc([N+](=O)[O-])c1Sc1ncc[nH]1
TGI (SN12C renal): > 100 µM
TGI (NCI-H23 lung): 99.6 µM
TGI (CAKI-1 renal): > 100 µM
TGI (NCI-H460 lung): > 100 µM
TGI (SF-539 CNS): > 100 µM
TGI (NCI-H522 lung): 38.1 µM
TGI (HT29 colon): > 100 µM
TGI (XF 498 CNS): > 100 µM
TGI (HOP-62 NSCLC): > 100 µM
TGI (SNB-78 CNS): > 100 µM
TGI (OVCAR-5 ovarian): > 100 µM
TGI (DMS 273 small cell lung): > 100 µM
TGI (SF-295 CNS): > 100 µM
TGI (SK-MEL-28 melanoma): > 100 µM
TGI (UACC-257 melanoma): > 100 µM
TGI (HCT-116 colon): > 100 µM
TGI (786-0 renal): > 100 µM
TGI (IGROV1 ovarian): > 100 µM
TGI (EKVX NSCLC): > 100 µM
TGI (COLO 205 colon): > 100 µM
TGI (A498 renal): > 100 µM
TGI (A549 NSCLC): > 100 µM
TGI (ACHN renal): > 100 µM
TGI (M14 melanoma): > 100 µM
TGI (HOP-92 NSCLC): > 100 µM
TGI (CCRF-CEM leukemia): 58.7 µM
TGI (SF-268 CNS): > 100 µM
TGI (NCI-H226 lung): > 100 µM
TGI (M19-MEL melanoma): > 100 µM
TGI (KM12 colon): > 100 µM
TGI (LXFL 529 NSCLC): > 100 µM
TGI (SNB-75 CNS): > 100 µM
TGI (SNB-19 CNS): > 100 µM
TGI (SK-OV-3 ovarian): > 100 µM
TGI (UACC-62 melanoma): > 100 µM
TGI (SR leukemia): > 100 µM
TGI (U251 CNS): > 100 µM
TGI (OVCAR-8 ovarian): > 100 µM
TGI (TK-10 renal): > 100 µM
TGI (OVCAR-4 ovarian): > 100 µM
TGI (DLD-1 colon): > 100 µM
TGI (LOX IMVI melanoma): 42.2 µM
TGI (MALME-3M melanoma): 93.8 µM
TGI (OVCAR-3 ovarian): > 100 µM
TGI (MOLT-4 leukemia): 76.8 µM
TGI (HCC-2998 colon): > 100 µM
TGI (RPMI-8226 leukemia): > 100 µM
TGI (DMS 114 small cell lung): > 100 µM
TGI (RXF-631 renal): 88 µM
TGI (K-562 leukemia): > 100 µM
TGI (SK-MEL-5 melanoma): > 100 µM
TGI (SK-MEL-2 melanoma): > 100 µM
TGI (UO-31 renal): > 100 µM
TGI (HOP-18 NSCLC): 73.8 µM
TGI (SW-620 colon): > 100 µM

Reference: PubChem BioAssay (NCI)
